Molecular target: Fatty acid synthase (Homo sapiens, UniProt P49327)
Assay: FAS Assay No1
Method: Inhibition of FAS by benzimidazole was measured by an endpoint assay for NADPH consumption.

Fatty acid synthase, sequence (P49327 whole entry): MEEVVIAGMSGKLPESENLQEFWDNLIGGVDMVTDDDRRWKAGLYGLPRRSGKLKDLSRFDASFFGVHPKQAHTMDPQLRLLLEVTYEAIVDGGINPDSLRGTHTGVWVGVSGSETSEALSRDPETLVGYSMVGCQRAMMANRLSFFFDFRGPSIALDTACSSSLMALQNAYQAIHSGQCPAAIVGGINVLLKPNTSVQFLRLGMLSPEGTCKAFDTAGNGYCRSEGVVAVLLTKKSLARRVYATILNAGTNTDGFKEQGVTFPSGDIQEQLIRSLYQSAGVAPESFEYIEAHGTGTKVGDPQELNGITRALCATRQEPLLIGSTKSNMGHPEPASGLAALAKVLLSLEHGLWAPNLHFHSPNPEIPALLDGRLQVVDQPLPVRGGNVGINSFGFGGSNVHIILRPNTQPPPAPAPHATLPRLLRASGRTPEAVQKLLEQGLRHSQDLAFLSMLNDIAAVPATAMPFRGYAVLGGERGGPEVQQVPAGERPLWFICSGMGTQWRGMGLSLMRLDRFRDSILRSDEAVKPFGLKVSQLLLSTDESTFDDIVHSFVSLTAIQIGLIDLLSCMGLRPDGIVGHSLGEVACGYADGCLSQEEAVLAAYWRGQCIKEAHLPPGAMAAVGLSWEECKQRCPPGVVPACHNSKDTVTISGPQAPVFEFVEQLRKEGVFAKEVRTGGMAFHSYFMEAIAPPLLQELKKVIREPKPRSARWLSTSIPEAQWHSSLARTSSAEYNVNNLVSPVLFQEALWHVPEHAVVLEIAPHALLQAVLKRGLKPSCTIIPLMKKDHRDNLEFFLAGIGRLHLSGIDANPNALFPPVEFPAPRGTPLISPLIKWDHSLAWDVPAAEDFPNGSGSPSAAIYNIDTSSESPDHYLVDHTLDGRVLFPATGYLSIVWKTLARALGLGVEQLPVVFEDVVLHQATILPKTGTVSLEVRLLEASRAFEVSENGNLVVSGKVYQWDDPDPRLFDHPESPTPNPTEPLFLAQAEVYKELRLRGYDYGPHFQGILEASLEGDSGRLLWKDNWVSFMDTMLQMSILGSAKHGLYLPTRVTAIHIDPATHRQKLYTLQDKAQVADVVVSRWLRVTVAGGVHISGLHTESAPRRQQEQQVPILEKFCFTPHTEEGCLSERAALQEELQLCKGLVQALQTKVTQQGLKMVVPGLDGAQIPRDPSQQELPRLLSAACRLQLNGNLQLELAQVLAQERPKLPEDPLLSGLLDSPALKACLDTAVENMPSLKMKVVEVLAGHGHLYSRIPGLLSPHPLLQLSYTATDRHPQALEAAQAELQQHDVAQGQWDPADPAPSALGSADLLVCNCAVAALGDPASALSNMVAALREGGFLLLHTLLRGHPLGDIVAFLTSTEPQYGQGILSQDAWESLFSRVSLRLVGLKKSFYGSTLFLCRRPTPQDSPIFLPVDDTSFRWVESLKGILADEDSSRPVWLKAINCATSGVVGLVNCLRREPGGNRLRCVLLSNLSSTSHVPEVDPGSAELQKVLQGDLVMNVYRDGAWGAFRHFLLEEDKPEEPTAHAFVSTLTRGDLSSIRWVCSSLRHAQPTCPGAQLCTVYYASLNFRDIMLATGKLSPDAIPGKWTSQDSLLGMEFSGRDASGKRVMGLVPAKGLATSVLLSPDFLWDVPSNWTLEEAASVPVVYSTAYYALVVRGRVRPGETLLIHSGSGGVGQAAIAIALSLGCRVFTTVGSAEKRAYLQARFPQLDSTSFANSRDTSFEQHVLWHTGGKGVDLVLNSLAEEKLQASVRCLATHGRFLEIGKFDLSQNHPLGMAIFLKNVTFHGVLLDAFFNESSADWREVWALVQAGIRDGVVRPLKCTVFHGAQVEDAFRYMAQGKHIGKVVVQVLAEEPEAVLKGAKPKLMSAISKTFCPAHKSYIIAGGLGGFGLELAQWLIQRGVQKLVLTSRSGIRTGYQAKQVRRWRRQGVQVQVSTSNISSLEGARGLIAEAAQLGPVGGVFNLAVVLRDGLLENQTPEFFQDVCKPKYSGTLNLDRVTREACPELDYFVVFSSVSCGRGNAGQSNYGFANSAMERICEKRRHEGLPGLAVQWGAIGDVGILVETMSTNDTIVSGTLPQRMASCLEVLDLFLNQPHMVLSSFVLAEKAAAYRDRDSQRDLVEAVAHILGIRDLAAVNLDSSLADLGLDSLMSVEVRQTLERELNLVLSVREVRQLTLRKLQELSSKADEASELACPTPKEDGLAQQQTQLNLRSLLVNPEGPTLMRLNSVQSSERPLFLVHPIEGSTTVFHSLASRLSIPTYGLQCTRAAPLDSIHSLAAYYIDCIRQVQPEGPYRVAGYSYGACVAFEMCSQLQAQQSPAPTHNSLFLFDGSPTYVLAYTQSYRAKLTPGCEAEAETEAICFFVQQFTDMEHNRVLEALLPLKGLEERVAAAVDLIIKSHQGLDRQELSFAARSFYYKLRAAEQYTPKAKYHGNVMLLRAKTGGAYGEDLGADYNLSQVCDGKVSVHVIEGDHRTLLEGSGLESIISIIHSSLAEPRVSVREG

IC50: 1000 nM
Structure (SMILES): CNC(=O)c1ccc2nc(-c3ccc(-c4ccccc4)cc3)n(CC3CCN(C(=O)C4CC4)C3)c2c1 (stereo unspecified) [2-([1,1'-Biphenyl]-4-yl)-1-((1-(cyclopropanecarbonyl)pyrrolidin-3-yl)methyl)-N-methyl-1H-benzo[d]imidazole-6-carboxamide]

From BindingDB's records for doi:10.1038/nchembio.1603 (Glaxosmithkline, 2014)
